Counter-ions that a name gives are not always drawn.
Assays:
[1] = test system: Vasopressin V2; assay: Vasopressin V2 agonist effects of test compounds in normal conscious water-loaded rats; assay type: in vivo; conditions: oral dose of 10 mg/kg, urine collected for four hours, Sprague-Dawley (CD) rats; for Changes in Urinary Osmolality: osmolality changes expressed as percent of control; for Urine Volume (% decrease): percent decrease in urine volume vs. control, vehicle 20% DMSO in 2.5% preboiled corn starch
From the text: Vasopressin V2 Agonist Effects of Test Compounds in Normal Conscious Water-Loaded Rats:
Male or female normotensive Sprague-Dawley rats (Charles River Laboratories, Inc., Kingston, NY) of 350-500 g body weight were supplied with standard rodent diet (Purina Rodent Lab. Chow 5001) and water ad libitum. On the day of test, rats were placed individually into metabolic cages equipped with devices to separate the feces from the urine and containers for collection of urine. A test compound or a reference agent was given at an oral dose of 10 mg/kg in a volume of 10 ml/kg. The vehicle used was 20% dimethylsulfoxide (DMSO) in 2.5% preboiled corn starch. Thirty minutes after dosing the test compound, rats were gavaged with water at 30 ml/kg into the stomach using a feeding needle. During the test, rats were not provided with water or food. Urine was collected for four hours after dosing of the test compound. At the end of four hours, urine volume was measured. Urinary osmolality was determined using a Fiske One-Ten Osmometer (Fiske Associates, Norwood, MA, 02062) or an Advanced CRYOMATIC Osmometer, Model 3C2 (Advanced Instruments, Norwood, MA). Determinations of Na^+, K^+ and Cl^- ion were carried out using ion specific electrodes in a Beckman SYNCHRON EL-ISE Electrolyte System analyzer. The urinary osmolality should increase proportionally. In the screening test, two rats were used for each compound. If the difference in the urine volume of the two rats was greater than 50%, a third rat was used.

[2] = test system: Vasopressin V2; assay: as above; assay type: in vivo; conditions: Sprague-Dawley (CD) rats; for Urine Volume (% decrease): percent decrease in urine volume vs. control, dose 1 mg/kg; for Changes in Urinary Osmolality: percent of control

Compound	Changes in Urinary Osmolality [1]	Urine Volume (% decrease) [1] [% decrease]	other results
Cc1ccn(-c2ccc(C(=O)N3Cc4cccnc4Nc4ccccc43)c(Cl)c2)n1 [Example 1, [2-Chloro-4-(3-methyl-pyrazol-1-yl)-phenyl]-(5,11-dihydro-pyrido [2,3-b] [1,5]benzodiazepin-6-yl)-methanone]	272% of control	80	
Cc1ccnn1-c1ccc(C(=O)N2Cc3cccnc3Nc3ccccc32)c(Cl)c1 [Example 2, [2-Chloro-4-(5-methyl-pyrazol-1-yl)-phenyl] (5,11-dihydro-pyrido[2,3-b] [1,5]benzodiazepin-6-yl)-methanone]	288% of control	61	
Cc1ccn(-c2ccc(C(=O)N3Cc4cccnc4Nc4ccccc43)c(Br)c2)n1 [Example 3, [2-Bromo-4-(3-methyl-pyrazol-1-yl)-phenyl]-(5,11-dihydro-pyrido[2,3-b] [1,5]benzodiazepin-6-yl)-methanone]	346% of control	85	
Cc1ccn(-c2ccc(C(=O)N3Cc4cccnc4Nc4ccccc43)c(C(F)(F)F)c2)n1 [Example 4, (5,11-Dihydro-pyrido[2,3-b][1,5]benzodiazepin-6-yl)-[4-(3-methyl-pyrazol-1-yl)-2-trifluoromethyl-phenyl]-methanone]	339% of control	87	
Cc1ccnn1-c1ccc(C(=O)N2Cc3cccnc3Nc3ccccc32)c(C(F)(F)F)c1 [Example 6, (5,11-Dihydro-pyrido[2,3-b][1,5]benzodiazepin-10-yl)-[4-(5-methyl-pyrazol-1-yl)-2-trifluoromethyl-phenyl]-methanone solvate with 0.09 dichloromethane and 0.13 ethyl acetate]	103% of control	25	
O=C(c1ccc(-n2ccc(C(F)(F)F)n2)cc1C(F)(F)F)N1Cc2cccnc2Nc2ccccc21 [Example 7, (5,11-Dihydro-pyrido[2,3-b][1,5]benzodiazepin-6-yl)-[2-trifluoromethyl-4-(3-trifluoromethyl-pyrazol-1-yl)-phenyl]-methanone]	283% of control	69	
Cc1ccn(-c2ccc(C(=O)N3Cc4cccnc4N(C)c4ccccc43)c(C(F)(F)F)c2)n1 [Example 8, (5-Methyl-5,11-dihydro-pyrido[2,3-b][1,5]benzodiazepin-10-yl)-[4-(3-methyl-pyrazol-1-yl)-2-trifluoromethyl-phenyl]methanone]	298% of control	72	
Cc1ccn(-c2ccc(C(=O)N3Cc4cccnc4Nc4ccccc43)c(F)c2)n1 [Example 9, (5,11-Dihydro-pyrido[2,3-b][1,5]benzodiazepin-10-yl)-[2-fluoro-4-(3-methyl-pyrazol-1-yl)-phenyl]-methanone 0.19 hydrate]	372% of control	59	
Cc1ccn(-c2cc(F)ccc2C(=O)N2Cc3cccnc3Nc3ccccc32)n1 [Example 10, (5,11-Dihydro-pyrido[2,3-b][1,5]benzodiazepin-10-yl)-[4-fluoro-2-(3-methyl-pyrazol-1-yl)-phenyl]-methanone solvate with 0.20 ethanol]	276% of control	63	
Cc1ccn(-c2ccc(C(=O)N3Cc4cccnc4N(C)c4ccccc43)c(Cl)c2)n1 [Example 11, [2-Chloro-4-(3-methyl-pyrazol-1-yl)-phenyl]-(5-methyl-5,11-dihydro-pyrido[2,3-b][1,5]benzodiazepin-10-yl)-methanone]	375% of control	71	
Cc1ccn(-c2ccc(C)c(C(=O)N3Cc4cccnc4Nc4ccccc43)c2)n1 [Example 12, (5,11-Dihydro-pyrido[2,3-b][1,5]benzodiazepin-10-yl)-[2-methyl-5-(3-methyl-pyrazol-1-yl)-phenyl]-methanone]	101% of control	-2	
CC(C)(C)c1ccn(-c2ccc(C(=O)N3Cc4cccnc4Nc4ccccc43)c(C(F)(F)F)c2)n1 [Example 13, [4-(3-tert-Butyl-pyrazol-1-yl)-2-trifluoromethyl-phenyl]-(5,11-dihydro-pyrido[2,3-b][1,5]benzodiazepin-10-yl)-methanone]	106% of control	6	
Cc1ccn(-c2ccc(C(=O)N3Cc4cccnc4Nc4ccccc43)c(C(F)(F)F)c2)n1 [Example 14, (5,11-Dihydro-pyrido[2,3-b][1,5]benzodiazepin-6-yl)-[4-(3-methyl-pyrazol-1-yl)-2-trifluoromethyl-phenyl]-methanone 1:1 salt with methanesulfonic acid solvate with 0.15 hexane]			Urine Volume (% decrease) [2]: 83 (1 mg/kg) % decrease; Changes in Urinary Osmolality ([2]; same row's urine volume cell prints 1 mg/kg (footnote says 10 mg/kg)): 321% of control
Cc1ccn(-c2ccc(C(=O)N3Cc4cccnc4Nc4ccccc43)c(C(F)(F)F)c2)n1 [Example 15, (5,11-Dihydro-pyrido[2,3-b][1,5]benzodiazepin-6-yl)-[4-(3-methyl-pyrazol-1-yl)-2-trifluoromethyl-phenyl]-methanone 1:1 salt with hydrochloric acid 0.10 dichloromethane solvate]			Urine Volume (% decrease) ([2]; starch only): 98 (1 mg/kg) starch only % decrease; Changes in Urinary Osmolality [2]: 1363% of control
Cc1ccn(-c2ccc(C(=O)N3Cc4cccnc4Oc4ccccc43)c(Cl)c2)n1 [Example 16, [2-Chloro-4-(3-methyl-pyrazol-1-yl)-phenyl]-(11H-5-oxa-4,10-diazadibenzo[a,d]cyclohepten-10-yl)-methanone]	142% of control	41	
O=C(c1ccc(-n2ccc(C(F)(F)F)n2)cc1Cl)N1Cc2cccnc2Nc2ccccc21 [Example 17, [2-Chloro-4-(3-trifluoromethyl-pyrazol-1-yl)-phenyl]-(5,11-dihydro-pyrido[2,3-b][1,5]benzodiazepin-6-yl)-methanone]	262% of control	72	
Cn1ccc(-c2ccc(C(=O)N3Cc4cccnc4Nc4ccccc43)c(Cl)c2)n1 [Example 18, [2-Chloro-4-(1-methyl-1-H-pyrazol-3-yl)-phenyl]-(5,11-dihydro-pyrido[2,3-b][1,5]benzodiazepin-10-yl)-methanone]	234% of control	76	
CN1c2ccccc2N(C(=O)c2ccc(-c3ccn(C)n3)cc2Cl)Cc2cccnc21 [Example 20, [2-Chloro-4-(1-methyl-1H-pyrazol-3-yl)-phenyl]-(5-methyl-5,11-dihydro-pyrido[2,3-b][1,5]benzodiazepin-10-yl)-methanone]	89% of control	10	
Cc1nc(-c2ccc(C(=O)N3Cc4cccnc4Nc4ccccc43)c(Cl)c2)n[nH]1 [Example 24, [2-Chloro-4-(5-methyl-1H-[1,2,4]triazol-3-yl)-phenyl]-(5,11-dihydro-pyrido[2,3-b][1,5]benzodiazepin-6-yl)-methanone]	615% of control	86	

Source: patent EP1000059B1, “TRICYCLIC VASOPRESSIN AGONISTS” (Wyeth, priority 1997, dated 1999)
